These results are taken from patent US20250101044A1, “METAL-ORGANIC FRAMEWORK COMPOSITE AND PREPARATION METHOD AND USE THEREOF” (priority 2021, published 2025).

In brackets after ≈: the same amount, converted by molar mass.

The experiment concerns S. aureus. As to the kind of experiment: MIC and MBC antibacterial test. The format is cell-based. The note with it: Staphylococcus aureus.

In turn, `O=C(O)/C=C/c1ccc(O)c(O)c1` [CA, caffeic acid] showed an MBC of 4 µg/mL (≈ 22.2 µM) and an MIC of 4 µg/mL (≈ 22.2 µM).
